Measured values as given in ChEMBL document CHEMBL1159134, “Heterocyclic guanidines as calcium antagonists” (Bioorg Med Chem Lett, 1994).
Where “and” joins values, the source holds several entries; their conditions need not be identical. Identical values can stand only once.

Assays:
[1] = Calcium channel-blocking effect was assessed in potassium ion depolarized guinea pig ileum strips by recording the contractile responses produced by varying concentrations of calcium chloride; format: functional, tissue-based; conditions: Cavia porcellus, read-out: pA2 (converted)
[2] = biological target: T1, Voltage-dependent L-type calcium channel subunit alpha-1C (Rattus norvegicus, UniProt P22002); experiment: Binding of [3H]nitrendipine to calcium channel in rat heart membranes was determined; format: cell membranes, Membrane
[3] = biological target: T1, Voltage-dependent L-type calcium channel subunit alpha-1C; experiment: Binding of [3H]nitrendipine to calcium channel in rat heart membranes; format: cell membranes, Membrane
[4] = biological target: Voltage-gated L-type calcium channel (Rattus norvegicus, UniProt P22002+Q02485+P27732); experiment: Binding of [3H]nitrendipine to calcium channel in rat cerebral cortex; format: tissue-based

T1 sequence (P22002 whole entry): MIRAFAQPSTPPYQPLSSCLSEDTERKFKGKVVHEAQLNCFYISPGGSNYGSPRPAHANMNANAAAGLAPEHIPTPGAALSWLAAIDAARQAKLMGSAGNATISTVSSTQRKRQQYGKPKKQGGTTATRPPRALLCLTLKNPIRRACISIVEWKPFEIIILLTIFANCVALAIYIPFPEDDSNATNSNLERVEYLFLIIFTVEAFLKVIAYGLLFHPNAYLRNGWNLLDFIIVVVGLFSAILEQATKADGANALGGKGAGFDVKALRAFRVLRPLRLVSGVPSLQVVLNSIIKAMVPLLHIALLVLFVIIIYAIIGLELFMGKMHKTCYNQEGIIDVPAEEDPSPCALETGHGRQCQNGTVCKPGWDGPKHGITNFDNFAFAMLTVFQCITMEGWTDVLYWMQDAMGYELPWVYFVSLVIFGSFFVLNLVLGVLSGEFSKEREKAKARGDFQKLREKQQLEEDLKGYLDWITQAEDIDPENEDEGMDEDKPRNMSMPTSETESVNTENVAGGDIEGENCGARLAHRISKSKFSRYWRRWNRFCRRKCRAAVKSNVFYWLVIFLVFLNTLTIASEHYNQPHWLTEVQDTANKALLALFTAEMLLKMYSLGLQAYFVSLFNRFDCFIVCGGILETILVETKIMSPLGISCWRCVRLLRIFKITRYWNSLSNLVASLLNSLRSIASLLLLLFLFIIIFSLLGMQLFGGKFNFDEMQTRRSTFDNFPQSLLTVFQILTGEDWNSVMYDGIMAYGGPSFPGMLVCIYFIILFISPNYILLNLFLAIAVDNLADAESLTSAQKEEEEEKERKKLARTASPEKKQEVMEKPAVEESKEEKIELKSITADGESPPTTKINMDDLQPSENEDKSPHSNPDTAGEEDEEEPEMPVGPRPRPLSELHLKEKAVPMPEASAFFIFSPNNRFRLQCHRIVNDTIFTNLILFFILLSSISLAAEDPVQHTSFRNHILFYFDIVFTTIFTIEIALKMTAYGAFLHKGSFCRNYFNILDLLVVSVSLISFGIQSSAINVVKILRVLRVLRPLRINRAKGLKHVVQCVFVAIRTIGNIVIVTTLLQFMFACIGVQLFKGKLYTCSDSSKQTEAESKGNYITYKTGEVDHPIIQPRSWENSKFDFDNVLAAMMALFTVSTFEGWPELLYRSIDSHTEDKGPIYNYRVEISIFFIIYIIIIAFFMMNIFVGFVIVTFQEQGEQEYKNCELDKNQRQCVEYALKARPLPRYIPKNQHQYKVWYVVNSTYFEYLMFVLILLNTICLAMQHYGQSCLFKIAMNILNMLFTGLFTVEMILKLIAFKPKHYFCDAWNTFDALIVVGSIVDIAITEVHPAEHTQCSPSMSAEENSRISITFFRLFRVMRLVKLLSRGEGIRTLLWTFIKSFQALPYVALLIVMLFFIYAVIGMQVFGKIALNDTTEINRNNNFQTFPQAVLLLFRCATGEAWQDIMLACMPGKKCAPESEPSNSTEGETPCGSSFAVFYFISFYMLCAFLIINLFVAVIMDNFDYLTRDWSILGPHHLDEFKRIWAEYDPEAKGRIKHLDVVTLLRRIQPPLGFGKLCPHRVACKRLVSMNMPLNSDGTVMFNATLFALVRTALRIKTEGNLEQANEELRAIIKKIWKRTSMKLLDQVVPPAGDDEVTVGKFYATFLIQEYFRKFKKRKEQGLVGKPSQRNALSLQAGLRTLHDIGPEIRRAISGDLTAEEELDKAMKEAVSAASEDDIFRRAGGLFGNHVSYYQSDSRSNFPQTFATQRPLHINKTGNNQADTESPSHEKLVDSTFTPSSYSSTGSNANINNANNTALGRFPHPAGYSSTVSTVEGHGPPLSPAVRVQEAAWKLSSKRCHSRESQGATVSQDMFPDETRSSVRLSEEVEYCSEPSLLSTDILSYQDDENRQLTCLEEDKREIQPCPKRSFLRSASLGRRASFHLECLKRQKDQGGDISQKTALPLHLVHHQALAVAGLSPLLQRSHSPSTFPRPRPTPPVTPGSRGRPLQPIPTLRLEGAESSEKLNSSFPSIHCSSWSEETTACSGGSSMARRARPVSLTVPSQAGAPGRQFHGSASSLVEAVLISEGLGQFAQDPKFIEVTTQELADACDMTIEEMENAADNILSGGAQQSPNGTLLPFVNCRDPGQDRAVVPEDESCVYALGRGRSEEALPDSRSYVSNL

Structure (SMILES) | Kb [1] | IC50 [2] | EC50 [3] | EC50 [4]
c1ccc(C(CNC2=NCCN2)c2ccccc2)cc1 | 676 nM | > 1000 nM |  | 
CN1CCN=C1NCCCC(c1ccccc1)c1ccccc1 | 170 nM | > 1000 nM |  | 
c1ccc(C(CCNC2=NCc3ccccc3CN2)c2ccccc2)cc1 | 50.1 nM | > 1000 nM |  | 
c1ccc(C(CNC2=N[C@H]3CCCC[C@@H]3N2)c2ccccc2)cc1 | 141 nM | > 1000 nM |  | 
CN1CCN=C1NCC(c1ccccc1)c1ccccc1 | 1860 nM | > 1000 nM |  | 
COc1ccc([C@@H]2Sc3ccccc3N(CCN(C)C)C(=O)[C@@H]2OC(C)=O)cc1 [DILTIAZEM] | 41.7 nM |  |  | 
CN1CCN=C1NCCC(c1ccccc1)c1ccccc1 | 257 nM | > 1000 nM |  | 
c1ccc([C@@H]2CCC[C@@H]2N/C2=N/CCCCCCCCCCC2)cc1 |  |  | 61 nM and 34 nM | 
c1ccc(C(CCNC2=NCCCCN2)c2ccccc2)cc1 | 240 nM | > 1000 nM |  | 
c1ccc(C(CNC2=NCCCCN2)c2ccccc2)cc1 | 550 nM | > 1000 nM |  | 
c1ccc(C(CCNC2=NCCN2)c2ccccc2)cc1 | 57.5 nM | > 1000 nM |  | 
c1ccc(C(CCNC2=NCCCN2)c2ccccc2)cc1 | 34.7 nM | > 1000 nM |  | 
c1ccc(C(CNC2=NCCCN2)c2ccccc2)cc1 | 776 nM | > 1000 nM |  | 
CN1CCCN=C1NCC(c1ccccc1)c1ccccc1 | 1100 nM | > 1000 nM |  | 
c1ccc(C(CNC2=NCCCCCN2)c2ccccc2)cc1 | 251 nM | > 1000 nM |  | 
c1ccc(C(CCN/C2=N/CCCCCN2)c2ccccc2)cc1 | 37.2 nM | > 1000 nM |  | 
c1ccc(C(CNC2=NCc3ccccc3CN2)c2ccccc2)cc1 | 81.3 nM | > 1000 nM |  | 
c1ccc(C(NC2=NCCN2)c2ccccc2)cc1 | 2510 nM | > 1000 nM |  | 
CCCC(CN/C1=N/CCCCCCCCCCC1)(c1ccccc1)c1ccccc1 | 53.7 nM | > 1000 nM | 34 nM | 61 nM
c1ccc(C(CCNC2=N[C@H]3CCCC[C@@H]3N2)c2ccccc2)cc1 | 132 nM | > 1000 nM |  | 
CN1CCCN=C1NCCC(c1ccccc1)c1ccccc1 | 240 nM | > 1000 nM |  | 
